Data reported in patent publication US20240109930A1, “TRIAZOLYL-METHYL SUBSTITUTED ALPHA-D-GALACTOPYRANOSIDE DERIVATIVES” (Idorsia Pharmaceuticals Ltd, priority 2021, published 2024).

How the values were obtained:
[1] = molecular target: human Gal-1 (hGal-1) (Homo sapiens, UniProt P09382, C131S/C17S/C43S/C61S/C89S); assay: Competitive binding assay: biotinylated hGal-1 binding to microplate-adsorbed asialofetuin (ASF); settings: IC50 values from several measurements given as geomean
Outline: (§1)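 Biotinylated hGal-3 or hGal-1 (preferably cysteine-free Cys→Ser mutant), 300–1000 ng/mL, competes with compound for ASF-coated wells for 3 h at 4 °C. Bound lectin detected with streptavidin-peroxidase (80 ng/mL, 1 h, 4 °C) and ABTS by absorbance; IC50 reported as geomean of several runs.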

[2] = molecular target: human Gal-3 (hGal-3) (Homo sapiens (Human), UniProt P17931); assay: Competitive binding assay: biotinylated hGal-3 binding to microplate-adsorbed asialofetuin (ASF); settings: IC50 values from several measurements given as geomean
Outline: as §1

Sequence of human Gal-3 (hGal-3) (P17931 whole entry): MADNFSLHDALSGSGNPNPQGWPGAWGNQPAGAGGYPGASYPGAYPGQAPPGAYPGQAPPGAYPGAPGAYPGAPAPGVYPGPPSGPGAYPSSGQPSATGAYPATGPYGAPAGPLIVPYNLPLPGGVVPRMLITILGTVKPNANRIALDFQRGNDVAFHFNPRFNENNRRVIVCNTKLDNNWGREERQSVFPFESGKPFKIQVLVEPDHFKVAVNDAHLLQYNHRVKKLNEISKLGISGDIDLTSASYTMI

Row | Compound | IC50 [1] | IC50 [2]
1 | CO[C@@H]1[C@@H](n2cc(-c3ccc(Cl)c(F)c3F)nn2)[C@@H](O)[C@@H](CO)O[C@@H]1Cc1cn(C2(CCO)COC2)nn1 [Ex 2.1.22.] | 680 nM | 50 nM
2 | CO[C@@H]1[C@@H](n2cc(-c3ccc(Cl)c(F)c3F)nn2)[C@@H](O)[C@@H](CO)O[C@@H]1Cc1cn(C2(C)CC2)nn1 [Ex 2.1.23.] | 1090 nM | 20 nM
3 | CO[C@@H]1[C@@H](n2cc(-c3ccc(Cl)c(F)c3F)nn2)[C@@H](O)[C@@H](CO)O[C@@H]1Cc1cn(C23CC(C(F)(F)F)(C2)C3)nn1 [Ex 2.1.24.] | 6700 nM | 80 nM
4 | CO[C@@H]1[C@@H](n2cc(-c3ccc(Cl)c(F)c3F)nn2)[C@@H](O)[C@@H](CO)O[C@@H]1Cc1cn(C23CC(F)(C2)C3)nn1 [Ex 2.1.25.] | 1960 nM | 50 nM
5 | CO[C@@H]1[C@@H](n2cc(-c3ccc(Cl)c(F)c3F)nn2)[C@@H](O)[C@@H](CO)O[C@@H]1Cc1cn(C2CC3(CC3)C2)nn1 [Ex 2.1.26.] | 7860 nM | 100 nM
6 | CO[C@@H]1[C@@H](n2cc(-c3ccc(Cl)c(F)c3F)nn2)[C@@H](O)[C@@H](CO)O[C@@H]1Cc1cn([C@]2(C)C[C@@H](O)C2)nn1 [Ex 2.1.27.] | 700 nM | 30 nM
7 | CO[C@@H]1[C@@H](n2cc(-c3ccc(Cl)c(F)c3F)nn2)[C@@H](O)[C@@H](CO)O[C@@H]1Cc1cn(C(C)(C)C(F)F)nn1 [Ex 2.1.28.] | 780 nM | 40 nM
8 | CO[C@@H]1[C@@H](n2cc(-c3ccc(Cl)c(F)c3F)nn2)[C@@H](O)[C@@H](CO)O[C@@H]1Cc1cn(C23CC(OC)(C2)C3)nn1 [Ex 2.1.29.] | 2100 nM | 60 nM
9 | CO[C@@H]1[C@@H](n2cc(-c3ccc(Cl)c(F)c3F)nn2)[C@@H](O)[C@@H](CO)O[C@@H]1Cc1cn(C2(CF)CCC2)nn1 [Ex 2.1.40.] | 1630 nM | 50 nM
10 | CO[C@@H]1[C@@H](n2cc(-c3ccc(Cl)c(F)c3F)nn2)[C@@H](O)[C@@H](CO)O[C@@H]1Cc1cn(C2CC(C(F)(F)F)C2)nn1 (stereo partly shown) [Ex 2.1.41.] | 9170 nM | 130 nM
11 | CO[C@@H]1[C@@H](n2cc(-c3ccc(Cl)c(F)c3F)nn2)[C@@H](O)[C@@H](CO)O[C@@H]1Cc1cn(C2(C)CCOC2)nn1 (stereo partly shown) [Ex 2.1.42.] | 1830 nM | 40 nM
12 | CO[C@@H]1[C@@H](n2cc(-c3ccc(Cl)c(F)c3F)nn2)[C@@H](O)[C@@H](CO)O[C@@H]1Cc1cn(C2(C(F)F)CCC2)nn1 [Ex 2.1.43.] | 610 nM | 20 nM
13 | CO[C@@H]1[C@@H](n2cc(-c3ccc(Cl)c(F)c3F)nn2)[C@@H](O)[C@@H](CO)O[C@@H]1Cc1cn(C23COC(C2)C3)nn1 [Ex 2.1.44.] | 2100 nM | 30 nM
14 | CO[C@@H]1[C@@H](n2cc(-c3ccc(Cl)c(F)c3F)nn2)[C@@H](O)[C@@H](CO)O[C@@H]1Cc1cn(C(C)(C)CF)nn1 [Ex 2.1.45.] | 1490 nM | 40 nM
15 | CO[C@@H]1[C@@H](n2cc(-c3ccc(Cl)c(F)c3F)nn2)[C@@H](O)[C@@H](CO)O[C@@H]1Cc1cn(C2(CF)CC2)nn1 [Ex 2.1.46.] | 1070 nM | 30 nM
16 | CO[C@@H]1[C@@H](n2cc(-c3ccc(Cl)c(F)c3F)nn2)[C@@H](O)[C@@H](CO)O[C@@H]1Cc1cn([C@]2(C)C[C@H](F)C2)nn1 [Ex 2.1.47.B] | 1200 nM | 30 nM
17 | CCC(C)(C)n1cc(C[C@H]2O[C@H](CO)[C@H](O)[C@H](n3cc(-c4ccc(Cl)c(F)c4F)nn3)[C@H]2OC)nn1 [Ex 2.1.49., (2R,3R,4S,5R,6R)-4-(4-(4-Chloro-2,3-difluorophenyl)-1H-1,2,3-triazol-1-yl)-2-(hydroxymethyl)-5-methoxy-6-((1-(tert-pentyl)-1H-1,2,3-triazol-4-yl)methyl)tetrahydro-2H-pyran-3-ol] | 1330 nM | 30 nM
18 | CCC(C)(CC)n1cc(C[C@H]2O[C@H](CO)[C@H](O)[C@H](n3cc(-c4ccc(Cl)c(F)c4F)nn3)[C@H]2OC)nn1 [Ex 2.1.50.] | 1600 nM | 70 nM
19 | CO[C@@H]1[C@@H](n2cc(-c3ccc(Cl)c(F)c3F)nn2)[C@@H](O)[C@@H](CO)O[C@@H]1Cc1cn(C2(C(F)F)CC2)nn1 [Ex 2.1.51., (2R,3R,4S,5R,6R)-4-(4-(4-chloro-2,3-difluorophenyl)-1H-1,2,3-triazol-1-yl)-6-((1-(1-(difluoromethyl)cyclopropyl)-1H-1,2,3-triazol-4-yl)methyl)-2-(hydroxymethyl)-5-methoxytetrahydro-2H-pyran-3-ol] | 830 nM | 20 nM
20 | CO[C@@H]1[C@@H](n2cc(-c3ccc(Cl)c(F)c3F)nn2)[C@@H](O)[C@@H](CO)O[C@@H]1Cc1cn(C2(CF)COC2)nn1 [Ex 2.1.52., (2R,3R,4S,5R,6R)-4-(4-(4-chloro-2,3-difluorophenyl)-1H-1,2,3-triazol-1-yl)-6-((1-(3-(fluoromethyl)oxetan-3-yl)-1H-1,2,3-triazol-4-yl)methyl)-2-(hydroxymethyl)-5-methoxytetrahydro-2H-pyran-3-ol [1-(1,2,3-tri-deoxy-2-methoxy-3-[4-(4-chloro-2,3-difluorophenyl)-1H-1,2,3-triazol-1-yl]-α-D-galacto-pyranose)-1-(1-(3-fluoromethyl-3-oxetanyl)-1H-triazol-4-yl)-methane]] | 650 nM | 20 nM
